Target: T1, human glucocorticoid receptor (GR) complex (Homo sapiens, UniProt P04150)
T1 construct: made in house; host or cells: insect expression system (baculovirus lysate)
T1 sequence (P04150 1-777): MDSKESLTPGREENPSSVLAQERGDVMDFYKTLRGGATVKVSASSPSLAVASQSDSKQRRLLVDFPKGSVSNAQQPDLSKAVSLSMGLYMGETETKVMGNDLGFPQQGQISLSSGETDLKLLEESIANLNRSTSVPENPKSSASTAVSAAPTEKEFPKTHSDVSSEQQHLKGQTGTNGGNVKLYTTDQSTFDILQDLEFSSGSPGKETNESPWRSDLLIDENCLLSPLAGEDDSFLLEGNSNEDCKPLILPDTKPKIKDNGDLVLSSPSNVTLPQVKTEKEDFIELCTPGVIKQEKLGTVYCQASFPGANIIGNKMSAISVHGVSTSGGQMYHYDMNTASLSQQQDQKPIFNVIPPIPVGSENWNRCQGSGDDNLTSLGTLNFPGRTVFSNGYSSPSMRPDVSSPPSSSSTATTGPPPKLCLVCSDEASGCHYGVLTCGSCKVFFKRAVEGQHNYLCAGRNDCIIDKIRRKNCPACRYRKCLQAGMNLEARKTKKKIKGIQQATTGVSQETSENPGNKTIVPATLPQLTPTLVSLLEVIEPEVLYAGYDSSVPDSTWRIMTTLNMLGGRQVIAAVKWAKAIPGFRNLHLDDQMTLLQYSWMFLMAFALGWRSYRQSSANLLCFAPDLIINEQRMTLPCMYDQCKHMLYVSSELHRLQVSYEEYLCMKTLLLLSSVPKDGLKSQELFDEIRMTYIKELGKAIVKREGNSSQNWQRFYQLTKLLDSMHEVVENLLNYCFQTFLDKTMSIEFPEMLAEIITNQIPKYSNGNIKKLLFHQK
Experiment: Glucocorticoid Receptor Competitive Binding Assay (fluorescence polarization, TAMRA-labeled dexamethasone probe)
Settings: qualitative statement; competition with TAMRA-labeled dexamethasone
Description: Compounds of the invention were evaluated for binding to the steroid receptor by a fluorescence polarization competitive binding assay.
A. Glucocorticoid Receptor Competitive Binding Assay
Step 1. Characterization of the Fluorescent Probe
The wavelengths for maximum excitation and emission of the fluorescent probe should first be measured. An example of such a probe is rhodamine (TAMRA)-labeled dexamethasone.
The affinity of the probe for the steroid receptor was then determined in a titration experiment. The fluorescence polarization value of the probe in assay buffer was measured on an SLM-8100 fluorometer using the excitation and emission maximum values described above. Aliquots of expression vector lysate were added and fluorescence polarization was measured after each addition until no further change in polarization value was observed. Non-linear least squares regression analysis was used to calculate the dissociation constant of the probe from the polarization values obtained for lysate binding to the probe.
Step 2. Screening for Inhibitors of Probe Binding
This assay uses fluorescence polarization (FP) to quantitate the ability of test compounds to compete with tetramethyl rhodamine (TAMRA)-labeled dexamethasone for binding to a human glucocorticoid receptor (GR) complex prepared from an insect expression system. The assay buffer was: 10 mM TES, 50 mM KCl, 20 mM Na2MoO4. 2H2O, 1.5 mM EDTA, 0.04% w/v CHAPS, 10% v/v glycerol, 1 mM dithiothreitol, pH 7.4. Test compounds were dissolved to 1 mM in neat DMSO and then further diluted to 10× assay concentration in assay buffer supplemented with 10% v/v DMSO. Test compounds were serially diluted at 10× assay concentrations in 10% DMSO-containing buffer in 96-well polypropylene plates. […] Positive controls were reaction mixtures containing no test compound; negative controls (blanks) were reaction mixtures containing 0.7 μM to 2 μM dexamethasone. […] IC50 values were determined by iterative non-linear curve fitting of the FP signal data to a 4-parameter logistic equation.

Row | activity in the GR binding assay | SMILES
1 | potent activity | COc1c(C(C)(C)CC(O)(Cc2cc3ccccc3[nH]2)C(F)(F)F)ccc2ccccc12 (stereo not shown) [1,1,1-Trifluoro-2-(1H-indol-2-ylmethyl)-4-(1-methoxynaphthalen-2-yl)-4-methylpentan-2-ol]
2 | potent activity | CC(C)(CC(O)(Cc1[nH]c2ccccc2c1C#N)C(F)(F)F)c1cccc2c1OCC2 (stereo not shown)
3 | potent activity | CC(C)(CC(O)(Cc1cc2ccccc2[nH]1)C(F)(F)F)c1cccc(O)c1 (stereo not shown) [3-[4,4,4-Trifluoro-3-hydroxy-3-(1H-indol-2-ylmethyl)-1,1-dimethylbutyl]phenol]
4 | potent activity | CC(C)(CC(O)(Cc1ccnc(Cl)c1)C(F)(F)F)c1cc(F)ccc1O (stereo not shown) [1,1,1-Trifluoro-4-(5-fluoro-2-hydroxyphenyl)-4-methyl-2-(2-chloropyridin-4-ylmethyl)pentan-2-ol]
5 | potent activity | CC(C)(CC(O)(Cc1cc2cccc(F)c2[nH]1)C(F)(F)F)c1cc(F)ccc1O (stereo not shown) [4-Fluoro-2-[4,4,4-trifluoro-3-(7-fluoro-1H-indol-2-ylmethyl)-3-hydroxy-1,1-dimethylbutyl]phenol]
6 | potent activity | COc1ccc(F)cc1C(C)(C)CC(O)(Cc1nc2ccccc2[nH]1)C(C)(C)C (stereo not shown) [5-(5-Fluoro-2-methoxyphenyl)-3-(benzimidazol-2-ylmethyl)-2,2,5-trimethylhexan-3-ol]
7 | potent activity | CC(C)(CC(O)(Cc1cc2ccncc2[nH]1)C(F)(F)F)c1ccc(F)cc1 (stereo not shown) [1,1,1-Trifluoro-4-(4-fluorophenyl)-4-methyl-2-(1H-pyrrolo[2,3-c]pyridin-2-ylmethyl)pentan-2-ol]
8 | potent activity | Cc1cccc(C)c1C(C)(C)CC(O)(Cc1ccnc2ccccc12)C(F)(F)F (stereo not shown) [4-(2,6-Dimethylphenyl)-1,1,1-trifluoro-4-methyl-2-quinolin-4-ylmethylpentan-2-ol]
9 | potent activity | COc1ccc(F)cc1C(C)(C)CC(O)(Cc1cc2cc(F)ccc2[nH]1)C(F)(F)F (stereo not shown) [1,1,1-Trifluoro-2-(5-fluoro-1H-indol-2-ylmethyl)-4-(5-fluoro-2-methoxyphenyl)-4-methylpentan-2-ol]
10 | potent activity | COC(=O)c1ccc2[nH]c(CC(O)(CC(C)(C)c3ccc(F)cc3OC)C(F)(F)F)cc2c1 (stereo not shown) [2-[4-(4-Fluoro-2-methoxyphenyl)-2-hydroxy-4-methyl-2-trifluoromethylpentyl]-1H-indole-5-carboxylic acid methyl ester]
11 | potent activity | COc1ccc(F)cc1C(C)(C)CC(O)(Cc1cc(Cl)nc2ccccc12)C(F)(F)F (stereo not shown) [1,1,1-Trifluoro-4-(5-fluoro-2-methoxyphenyl)-4-methyl-2-(2-chloroquinolin-4-ylmethyl)pentan-2-ol]
12 | potent activity | COc1ccc(F)cc1C(C)(C)CC(O)(CF)Cc1cc2ccccc2[nH]1 (stereo not shown) [4-(5-Fluoro-2-methoxyphenyl)-2-fluoromethyl-1-(1H-indol-2-yl)-4-methylpentan-2-ol]
13 | potent activity | CC(C)(CC(O)(Cc1[nH]c2ccccc2c1C#N)C(F)(F)F)c1ccccc1 (stereo not shown) [2-(2-Hydroxy-4-methyl-4-phenyl-2-trifluoromethylpentyl)-1H-indole-3-carbonitrile]

Further lines, the molecule ahead of its results:

Row | SMILES | activity in the GR binding assay
14 | COc1ccc(F)cc1C(C)(C)CC(O)(Cc1nc2ccc(F)cc2[nH]1)C(F)(F)F (stereo not shown) [1,1,1-Trifluoro-2-(6-fluoro-1H-benzoimidazol-2-ylmethyl)-4-(5-fluoro-2-methoxyphenyl)-4-methylpentan-2-ol] | potent activity
15 | CC(C)(CC(O)(Cc1ccnc2ccccc12)C(F)(F)F)c1ccc2ccccc2c1O (stereo not shown) [2-(4,4,4-Trifluoro-3-hydroxy-1,1-dimethyl-3-quinolin-4-ylmethylbutyl)naphthalen-1-ol] | potent activity
16 | CC(C)(CC(O)(Cc1cc2ccccc2[nH]1)C(F)(F)F)c1ccccc1 (stereo not shown) [1,1,1-Trifluoro-2-(1H-indol-2-ylmethyl)-4-methyl-4-phenylpentan-2-ol] | potent activity
17 | CC(C)(CC(O)(Cn1cc(C#N)c2ccccc21)C(F)(F)F)c1cccc2c1OCC2 (stereo not shown) [1-[4-(2,3-Dihydrobenzofuran-7-yl)-2-hydroxy-4-methyl-2-trifluoromethylpentyl]-1H-indole-3-carbonitrile] | potent activity
18 | CC(C)(CC(O)(Cc1ccnc2ccccc12)C(F)(F)F)c1cccc(O)c1 (stereo not shown) [3-(4,4,4-Trifluoro-3-hydroxy-1,1-dimethyl-3-quinolin-4-ylmethylbutyl)phenol] | potent activity
19 | CC(C)(CC(O)(Cc1cc2ccccc2[nH]1)C(F)(F)F)c1ccsc1 (stereo not shown) [1,1,1-Trifluoro-2-(1H-indol-2-ylmethyl)-4-methyl-4-thiophen-3-ylpentan-2-ol] | potent activity
20 | CC(C)(CC(O)(Cc1cc2ccccc2[nH]1)C(F)(F)F)c1cccc(F)c1 (stereo not shown) [1,1,1-Trifluoro-4-(3-fluorophenyl)-2-(1H-indol-2-ylmethyl)-4-methylpentan-2-ol] | potent activity
21 | COc1ccc(F)cc1C(C)(C)CC(O)(Cc1cc2ccccc2[nH]1)CC1CC1 (stereo not shown) [1-Cyclopropyl-4-(5-fluoro-2-methoxyphenyl)-2-(indol-2-ylmethyl)-4-methylpentan-2-ol] | potent activity
22 | CC(C)(CC(O)(Cc1cc(Cl)nc(Cl)c1)C(F)(F)F)c1cc(F)ccc1O (stereo not shown) [2-[3-(2,6-Dichloropyridin-4-ylmethyl)-4,4,4-trifluoro-3-hydroxy-1,1-dimethylbutyl]-4-fluorophenol] | potent activity
23 | CC(C)(CC(O)(Cc1cc2cc(C#N)ccc2[nH]1)C(F)(F)F)c1cccc2c1OCC2 (stereo not shown) [2-[4-(2,3-Dihydrobenzofuran-7-yl)-2-hydroxy-4-methyl-2-trifluoromethylpentyl]-1H-indole-5-carbonitrile] | potent activity
24 | COc1ccc(Br)cc1C(C)(C)CC(O)(Cc1cc2c(C)cc(C#N)cc2[nH]1)C(F)(F)F (stereo not shown) [2-[4-(5-Bromo-2-methoxyphenyl)-2-hydroxy-4-methyl-2-trifluoromethylpentyl]-4-methyl-1H-indole-6-carbonitrile] | potent activity
25 | COc1ccc(F)cc1C(C)(C)CC(O)(Cc1nc2cccc(C)c2[nH]1)C(F)(F)F (stereo not shown) [1,1,1-Trifluoro-4-(5-fluoro-2-methoxyphenyl)-4-methyl-2-(7-methyl-1H-benzoimidazol-2-ylmethyl)pentan-2-ol] | potent activity
26 | CCc1cccc(C(C)(C)CC(O)(Cc2cc3ccccc3[nH]2)C(F)(F)F)c1O (stereo not shown) [2-Ethyl-6-[4,4,4-trifluoro-3-hydroxy-3-(1H-indol-2-ylmethyl)-1,1-dimethylbutyl]phenol] | potent activity
27 | CC(C)(CC(O)(Cc1cc2ccccc2[nH]1)C(F)(F)F)c1ccc(O)cc1 (stereo not shown) [4-[4,4,4-Trifluoro-3-hydroxy-3-(1H-indol-2-ylmethyl)-1,1-dimethylbutyl]phenol] | potent activity
28 | CC(C)(CC(O)(Cc1ccnc2ccccc12)C(F)(F)F)c1ccc2ccccc2c1 (stereo not shown) [1,1,1-Trifluoro-4-methyl-4-naphthalen-2-yl-2-quinolin-4-ylmethylpentan-2-ol] | potent activity

From US7553966B2, “Glucocorticoid mimetics, methods of making them, pharmaceutical compositions, and uses thereof” (Boehringer Ingelheim Pharmaceuticals, Inc., priority 2002, dated 2009)
